Source: patent US7341867B2, “Human preprotachykinin gene promoter” (University of Medicine & Dentistry of New Jersey, priority 1999, dated 2008)

Experiments:
MDAMB-330 = assay: Clonogenic assay, proliferation of breast cancer cell line; type: cell-based; conditions: 1 mM antagonist, 2 weeks; for # of colonies/10^3 cells (±SD): methyl cellulose matrix
Method: (§1) Clonogenic assays studied the proliferation of breast cancer cell lines. Duplicate cultures were performed with 10^3 cells/ml in 1.2% methylcellulose matrix that contained various concentrations (between about 100 to 0.001 mM) of NK-1, NK-2 or (NK-1+NK-2) antagonists. Baseline cultures contained media alone. For each cell line, the assay contained the appropriate culture media. Cultures were incubated for 2 wk at 37° C. This was followed by enumeration of colonies that contained more than 10 cells. In a highly preferred embodiment, the concentration of antagonist is 1 nM.
(§2) Increased expression of PPT-I and NK-1 in breast cancer cells (Tables 1 and 2) led to the next set of experiments. A functional role for these genes in breast cancer is established by determining whether PPT-I peptides, endogenously produced by breast cancer cells, can induce their proliferation through autocrine and/or paracrine mechanisms. This question was addressed in six different experiments using clonogenic assay. […] NK-1 or NK-2 antagonists blunted breast cancer cell proliferation by approximately […] when compared to cultures with media alone (Table 4). […] There was no significant difference (p>0.5) in cell proliferation when normal mammary epithelial cells (MCF12A and H5578Bst) were cultured with the antagonists. […] Reduced colony formation was not due to necrosis since >99% of the cells were trypan blue negative in suspension cultures, performed for two weeks with antagonists.

BT474 = assay: as above; type: cell-based; conditions: 1 mM antagonist, 2 weeks; for # of colonies/10^3 cells (±SD): methyl cellulose matrix
Method: as §1, §2

ZR7530 = assay: as above; type: cell-based; conditions: 1 mM antagonist, 2 weeks; for # of colonies/10^3 cells (±SD): methyl cellulose matrix
Method: as §1, §2

Du4475 = assay: as above; type: cell-based; conditions: 1 mM antagonist, 2 weeks; for # of colonies/10^3 cells (±SD): methyl cellulose matrix
Method: as §1, §2

T47D = assay: as above; type: cell-based; conditions: 1 mM antagonist, 2 weeks; for # of colonies/10^3 cells (±SD): methyl cellulose matrix
Method: as §1, §2

Hs578Bst = assay: Clonogenic assay, nontransformed mammary epithelial cells; type: cell-based; conditions: 1 mM antagonist, 2 weeks; for # of colonies/10^3 cells (±SD): methyl cellulose matrix
Method: as §1, §2

MCF12A = assay: as above; type: cell-based; conditions: 1 mM antagonist, 2 weeks; for # of colonies/10^3 cells (±SD): methyl cellulose matrix
Method: as §1, §2

β-PPT-I mRNA = assay: Quantitative RT-PCR in stimulated bone marrow stroma; type: cell-based, human; conditions: for β-PPT-I (molecules/μg total RNA): 8 ng/ml SCF and/or 10 nM CP-99,994
Method: (§3) In a second embodiment of the present invention, bone marrow stroma was stimulated in serum-free α-MEM supplemented with Insulin-transferrin-selenium-A (Life Technologies). Quantitative RT-PCR with total RNA, extracted from bone marrow stroma and construction of standard DNA was performed as described in Singh, D., supra. The end sequences of the standard DNA contained gene-specific sequences that are complementary for the reaction primers. The primers in the standard DNA flank neutral DNA. Total RNA (2 μg) was reverse transcribed and 200 ng cDNA used in PCR with specific oligonucleotide primers for PPT-I, NK-1 or NK-2. Standard DNA, log10 fold dilutions, ranged between 10^−2 to 10^−6 attomole/L. Each unknown sample was assayed with a particular concentration of standard DNA in the same reaction tube. PCR products (10 μl) were separated by electrophoresis on 1.5% agarose containing ethidium bromide and the densities of the DNA bands quantitated with a Fluorimager (Molecular Dynamics, Sunnyvale, Calif.) and then analyzed with ImageQuant software. A standard curve was established for each unknown sample: band densities of unknown/standard DNA vs. Log10 standard DNA concentration was used to determine the concentration of RNA molecules in the unknown samples. The concentration of the unknown sample was selected at the concentration in which the ratio of the unknown and standard were equivalent.
(§4) Transfected bone marrow stroma was stimulated with optimal concentrations of IL-1α (2.5 ng/ml), SCF (8 ng/ml) or 1 nM substance P, SP (Sigma, St Louis, Mo.) and/or 10 nM NK-1-specific antagonist (CP-99,994) in α-MEM with 2% FCS. In other embodiments, bone marrow stroma was stimulated with 5 μg/ml forskolin, FK (Sigma) for 2 and 5 h. SCF was purchased from R&D Systems (Minneapolis, Minn.) and IL-1α was obtained from Hoffman LaRoche, Nutley, N.J. Pfizer, Inc. (Groton, Conn.) provided CP-99,994. Substance P and CP-99,994 were dissolved and stored as described in Ramewshwar et al (1996), supra. Optimal parameters were determined with dose-response and time-course studies.
Confluent bone marrow stroma was stimulated with 25 ng/ml rhIL-1α or 10 ng/ml SCF for 24 h. Poly A RNA was isolated from total RNA by selection (2×) on oligo-dT cellulose (Life Technologies). The cellulose column was washed once with 10 mM Tris, pH 7.0; 0.5 M NaCl; […] and once with 10 mM Tris, pH 7.0; 0.2 M NaCl; […]. Poly A RNA was eluted with 10 mM Tris (pH 7.0) and […]. RNA was precipitated by standard techniques and then resuspended in DEPC-treated water. The purity was verified by the absence of rRNA.

[1] = tested on: PPT-I promoter (Upstream/N0); assay: Luciferase reporter gene assay, pGL3-Upstream/N0 in transfected bone marrow stroma; type: cell-based, human
Method: as §4
pGL3-basic with inserts of different fragments from PPT-I-p1.2 was co-transfected with pβ-gal-Control (0.5 μg each) in 80% confluent bone marrow stroma using SuperFect (Qiagen, Valencia, Calif.). After 48 h cells were scraped in 30 μl 250 mM Tris (pH 8.0) and then lysed by freezing and thawing in a dry ice/ethanol bath. Cell-free lysates (24 μl) were obtained by centrifugation at 15,000 g for 5 min at 4° C. and then diluted with 5× cell culture lysis buffer (Promega). Luciferase and β-gal activities were quantitated with 10 μl of lysates using Luciferase assay system (Promega) and Luminescent β-galactosidase detection kit II (Clontech) respectively. In the experimental model, the ratios of Luciferase/β-gal in cells transfected with vector alone ranged from 0.18 to 0.19 and was normalized to 1. Because cytokines induce the promoter upstream of β-gal, in cytokine-stimulated cells, luciferase activity was presented/mg of total protein the levels normalized with stroma transfected with vector alone. Total protein was determined using standard techniquees well known in the art.
Mutations were performed with a mutagenesis kit (Stratagene, La Jolla, Calif.). The desired mutant sequences (Table 1) were synthesized within 40 nt in the forward and reverse directions and then used in PCR with pGL3 containing wild type Upstream/N0. After PCR amplification, mutation was verified by identification of Apa L1 within CRE-like mutant and the loss of Xho 1 in CRE mutant.

NK-2 mRNA = assay: Quantitative RT-PCR in stimulated bone marrow stroma; type: cell-based, human; conditions: BM stroma; 8 ng/ml SCF or 2.5 ng/ml IL-1a; 16 h; serum-free α-MEM
Method: as §3, §4

NK-1 mRNA = assay: as above; type: cell-based, human; conditions: BM stroma; 8 ng/ml SCF or 2.5 ng/ml IL-1a; 16 h; serum-free α-MEM
Method: as §3, §4

| Molecule | percentage of cells cultured in media alone (MDAMB-330) | # of colonies/10^3 cells (±SD) (MDAMB-330) | percentage of cells cultured in media alone (BT474) | # of colonies/10^3 cells (±SD) (BT474) | percentage of cells cultured in media alone (ZR7530) | # of colonies/10^3 cells (±SD) (ZR7530) | percentage of cells cultured in media alone (Du4475) | # of colonies/10^3 cells (±SD) (Du4475) | percentage of cells cultured in media alone (T47D) | # of colonies/10^3 cells (±SD) (T47D) | # of colonies/10^3 cells (±SD) (Hs578Bst) | percentage of cells cultured in media alone (MCF12A) | # of colonies/10^3 cells (±SD) (MCF12A) | β-PPT-I (molecules/μg total RNA) (β-PPT-I mRNA; BM stroma, 1 nM SP, 16 h) | also measured |
| --- | --- | --- | --- | --- | --- | --- | --- | --- | --- | --- | --- | --- | --- | --- | --- |
| COc1ccccc1CN[C@H]1C2CCN(CC2)[C@H]1C(c1ccccc1)c1ccccc1 [CP96,345] | 38% | 65 ± 5 colonies/10^3 cells | 39% | 70 ± 5 colonies/10^3 cells | 41% | 68 ± 8 colonies/10^3 cells | 39% | 63 ± 6 colonies/10^3 cells | 40% | 60 ± 4 colonies/10^3 cells | 201 ± 12 colonies/10^3 cells | (94%) | 198 ± 18 colonies/10^3 cells |  |  |
| COc1ccccc1CN[C@H]1CCCN[C@H]1c1ccccc1 [CP-99,994] |  |  |  |  |  |  |  |  |  |  |  |  |  | <1 molecules/μg total RNA | reduction of SP-induced β-PPT-I (β-PPT-I mRNA; 10 nM CP-99,994, 1 nM SP): 7 fold; effect on induction of endogenous PPT-I by SCF (β-PPT-I mRNA; BM stroma, SCF + CP-99,994): bluned; luciferase activity in SCF-stimulated cells in the presence of the antagonist ([1]; 10 nM CP-99,994, SCF-stimulated transfected stroma): significantly reduced; luciferase activity, antagonist alone compared to transfectants with vector alone ([1]; antagonist alone): did not affect |
| CC(=O)NC1(c2ccccc2)CCN(CC[C@H](CN(C)C(=O)c2ccccc2)c2ccc(Cl)c(Cl)c2)CC1 [SR48968] | 38% | 64 ± 4 colonies/10^3 cells | 36% | 65 ± 8 colonies/10^3 cells | 36% | 60 ± 10 colonies/10^3 cells | 38% | 60 ± 5 colonies/10^3 cells | 43% | 65 ± 7 colonies/10^3 cells | 210 ± 11 colonies/10^3 cells | 95% | 200 ± 9 colonies/10^3 cells |  | percentage of cells cultured in media alone (Hs578Bst): 105% |
| substance P (RPKPQQFFGLM) [SP, major PPT-I peptide, preferred ligand for NK-1 (Sigma)] |  |  |  |  |  |  |  |  |  |  |  |  |  | 284 ± 12 molecules/μg total RNA |  |
| IL-1a: cytokine IL-1α obtained from Hoffman LaRoche (protein, UniProt P01583 113-271, looked up) Interleukin-1 alpha: SAPFSFLSNVKYNFMRIIKYEFILNDALNQSIIRANDQYLTAAALHNLDEAVKFDMGAYKSSKDDAKITVILRISKTQLYVTAQDEDQPVLLKEMPEIPKTITGSETNLLFFWETHGTKNYFTSVAHPNLFIATKQDYWVCLAGGPPSITDFQILENQA |  |  |  |  |  |  |  |  |  |  |  |  |  |  | β-PPT-I mRNA (β-PPT-I mRNA; BM stroma, 8 ng/ml SCF or 2.5 ng/ml IL-1a, 16 h, serum-free α-MEM): 4849 ± 121 Molecules/μg total RNA; molecules of β-PPT-I/μg poly A (β-PPT-I mRNA; poly A RNA from stroma stimulated with 25 ng/ml rhIL-1α or 10 ng/ml SCF for 24 h, n=6): 250,100±980 molecules of β-PPT-I/μg poly A; NK-2 mRNA (NK-2 mRNA): 968 ± 26 Molecules/μg total RNA; NK-1 mRNA (NK-1 mRNA): 8106 ± 91 Molecules/μg total RNA; increase in luciferase activities compared to unstimulated cells ([1]; pGL3-Upstream/N0 wild type, optimal SCF or IL-1a, 10 h): 3 fold; induction of luciferase in cells transfected with the double mutants ([1]; pGL3-Upstream/N0 with mutant CRE and CRE-like): no significant induction |
